# Assay results: patent US8163921B2, “Hepatitis C virus inhibitors” (Bristol-Myers Squibb Company, priority 2008, dated 2012)
# Where two headings read alike, the source gives them in different places.
# Assays:
# [1] = tested on: HCV replicon in HUH-7 cells; assay: HCV replicon FRET assay; format: cell-based, HCV strain 1b; conditions: Hepatitis C virus
# Description: An HCV replicon whole cell system was established as described by Lohmann V, Korner F, Koch J, Herian U, Theilmann L, Bartenschlager R., Science 285(5424):110-3 (1999). This system enabled us to evaluate the effects of our HCV Protease compounds on HCV RNA replication. Briefly, using the HCV strain 1b sequence described in the Lohmann paper (Assession number:AJ238799), an HCV cDNA was synthesized by Operon Technologies, Inc. (Alameda, Calif.), and the full-length replicon was then assembled in plasmid pGem9zf(+) (Promega, Madison, Wis.) using standard molecular biology techniques. The replicon consists of (i) the HCV 5′ UTR fused to the first 12 amino acids of the capsid protein, (ii) the neomycin phosphotransferase gene (neo), (iii) the IRES from encephalomyocarditis virus (EMCV), and (iv) HCV NS3 to NS5B genes and the HCV 3′ UTR. Plasmid DNAs were linearized with ScaI and RNA transcripts were synthesized in vitro using the T7 MegaScript transcription kit (Ambion, Austin, Tex.) according to manufacturer's directions. In vitro transcripts of the eDNA were transfected into the human hepatoma cell line, HUH-7. […] Resulting cell lines were characterized for positive and negative strand RNA production and protein production over time.
# The HCV replicon FRET assay was developed to monitor the inhibitory effects of compounds described in the disclosure on HCV viral replication. HUH-7 cells, constitutively expressing the HCV replicon, were grown in Dulbecco's Modified Eagle Media (DMEM) (Gibco-BRL) containing 10% Fetal calf serum (FCS) (Sigma) and 1 mg/ml G418 (Gibco-BRL). Cells were seeded the night before (1.5×10^4 cells/well) in 96-well tissue-culture sterile plates. Compound and no compound controls were prepared in DMEM containing 4% FCS, 1:100 Penicillin/Streptomysin (Gibco-BRL), 1:100 L-glutamine and 5% DMSO in the dilution plate (0.5% DMSO final concentration in the assay). Compound/DMSO mixes were added to the cells and incubated for 4 days at 37° C. After 4 days, cells were first assessed for cytotoxicity using alamar Blue (Trek Diagnotstic Systems) for a CC50 reading. The toxicity of compound (CC50) was determined by adding 1/10th volume of alamar Blue to the media incubating the cells. After 4 h, the fluorescence signal from each well was read, with an excitation wavelength at 530 nm and an emission wavelength of 580 nm, using the Cytofluor Series 4000 (Perspective Biosystems). Plates were then rinsed thoroughly with Phosphate-Buffered Saline (PBS) (3 times 150 μl).
# [2] = target: T1, HCV NS3/4A protease complex, BMS strain (UniProt P27958, C1454S/C1711G, species not given); assay: FRET peptide assay to monitor HCV NS3/4A proteolytic activity (BMS strain); format: biochemical, HCV genotype 1a; conditions: read-out: IC50 Range, HCV NS3/4A enzyme assay
# T1 construct: other: HCV NS3/4A enzyme assay; class symbols; numeric values; fused on or other part: three-lysine solubilising tail at the C-terminus of NS4A; purified on Ni-NTA from the pET21b vector (His tag implied)
# Procedure, shortened: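 Recombinant HCV NS3/4A protease complex (BMS strain, genotype 1a), 2-3 nM final (300 pM with 50 μg/ml BSA for very potent compounds), incubated with RET S1 EDANS/DABCYL depsipeptide substrate at 2 μM final. Buffer: 50 mM HEPES pH 7.5, 0.15 M NaCl, 0.1% Triton, 15% glycerol, 10 mM βME. Cleavage followed in real time by fluorescence.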
# [3] = Huh-7, HCV replicon cell assay, numeric values, read-out: EC50 Range
SMILES,"EC50 ([1]; Huh-7, read-out: EC50 Range) [nM]",IC50 ([2]; class symbols) [nM],"EC50 [1, 3] [nM]",IC50 ([2]; numeric values) [nM]
C=C[C@@H]1C[C@]1(NC(=O)[C@@H]1C[C@@H](Oc2ncc(OC)c3ccc(Cl)cc23)CN1C(=O)[C@@H](Nc1nc(-c2ccc(OC)cc2OC)cs1)C(C)(C)C)C(=O)NS(=O)(=O)C1CC1 [Example 28],1 to 50,1 to 20,,
C=C[C@@H]1C[C@]1(NC(=O)[C@@H]1C[C@@H](Oc2ncc(OC)c3ccc(Cl)cc23)CN1C(=O)[C@@H](Nc1nc(-c2ccc(Cl)cc2Cl)cs1)C(C)(C)C)C(=O)NS(=O)(=O)C1CC1 [Example 37],1 to 50,20 to 200,,
C=C[C@@H]1C[C@]1(NC(=O)[C@@H]1C[C@@H](Oc2ncc(OC)c3ccc(Cl)cc23)CN1C(=O)[C@@H](Nc1nc(-c2ccc(Cl)c(C)c2)cs1)C(C)(C)C)C(=O)NS(=O)(=O)C1CC1 [Example 27],,,5.26,2
COc1cnc(O[C@@H]2C[C@@H](C(=O)N[C@]3(C(=O)NS(=O)(=O)C4CC4)C[C@H]3CC(F)F)N(C(=O)[C@@H](Nc3nc(-c4ccc(Oc5ccccc5)cc4)cs3)C(C)(C)C)C2)c2cc(Cl)ccc12 [Example 99],50 to 200,20 to 200,,
"C=C[C@@H]1C[C@]1(NC(=O)[C@@H]1C[C@@H](Oc2ncc(OC)c3ccc(Cl)cc23)CN1C(=O)[C@@H](Nc1nc(-c2ccc(F)c(F)c2)cs1)C(C)(C)C)C(=O)NS(=O)(=O)C1CC1 [Example 6, (2S,4R)-4-(7-chloro-4-methoxyisoquinolin-1-yloxy)-N-((1R,2S)-1-(cyclopropylsulfonylcarbamoyl)-2-vinylcyclopropyl)-1-((S)-2-(4-(3,4-difluorophenyl)thiazol-2-ylamino)-3,3-dimethylbutanoyl)pyrrolidine-2-carboxamide]",1 to 50,1 to 20,,
C=C[C@@H]1C[C@]1(NC(=O)[C@@H]1C[C@@H](Oc2ncc(OC)c3ccc(Cl)cc23)CN1C(=O)[C@@H](Nc1nc(-c2ccccn2)cs1)C(C)(C)C)C(=O)NS(=O)(=O)C1CC1 [Example 14],1 to 50,1 to 20,,
C=C[C@@H]1C[C@]1(NC(=O)[C@@H]1C[C@@H](Oc2ncc(OC)c3ccc(Cl)cc23)CN1C(=O)[C@@H](Nc1nc(-c2ccc(C)cc2C)cs1)C(C)(C)C)C(=O)NS(=O)(=O)C1CC1 [Example 34],1 to 50,1 to 20,,
C=C[C@@H]1C[C@]1(NC(=O)[C@@H]1C[C@@H](Oc2ncc(OC)c3ccc(Cl)cc23)CN1C(=O)[C@@H](Nc1nc(-c2ccccc2OC)cs1)C(C)(C)C)C(=O)NS(=O)(=O)C1CC1 [Example 33],,,6.84,9
C=C[C@@H]1C[C@]1(NC(=O)[C@@H]1C[C@@H](Oc2ncc(OC)c3ccc(Cl)cc23)CN1C(=O)C(C)Nc1nnnn1-c1ccccc1)C(=O)NS(=O)(=O)C1CC1 (some centres unmarked) [Example 100],,,334,795
C=C[C@@H]1C[C@]1(NC(=O)[C@@H]1C[C@@H](Oc2ncc(OC)c3ccc(Cl)cc23)CN1C(=O)[C@@H](Nc1nc(-c2ccccc2)cs1)C(C)(C)C)C(=O)NS(=O)(=O)C1CC1 [Example 20],,,3.9,3
C=C[C@@H]1C[C@]1(NC(=O)[C@@H]1C[C@@H](Oc2ncc(OC)c3ccc(Cl)cc23)CN1C(=O)[C@@H](Nc1nc(-c2ccccc2F)cs1)C(C)(C)C)C(=O)NS(=O)(=O)C1CC1 [Example 39],1 to 50,1 to 20,,
C=C[C@@H]1C[C@]1(NC(=O)[C@@H]1C[C@@H](Oc2ncc(OC)c3ccc(Cl)cc23)CN1C(=O)[C@@H](Nc1nc(-c2ccc(F)c(Cl)c2)cs1)C(C)(C)C)C(=O)NS(=O)(=O)C1CC1 [Example 52],1 to 50,1 to 20,,
C=C[C@@H]1C[C@]1(NC(=O)[C@@H]1C[C@@H](Oc2ncc(OC)c3ccc(Cl)cc23)CN1C(=O)[C@@H](Nc1nc(-c2ccc(N(CC)CC)cc2)cs1)C(C)(C)C)C(=O)NS(=O)(=O)C1CC1 [Example 44],1 to 50,1 to 20,,
C=C[C@@H]1C[C@]1(NC(=O)[C@@H]1C[C@@H](Oc2ncc(OC)c3ccc(Cl)cc23)CN1C(=O)[C@@H](Nc1nc(-c2cccc(F)c2)cs1)C(C)(C)C)C(=O)NS(=O)(=O)C1CC1 [Example 43],1 to 50,1 to 20,,
C=C[C@@H]1C[C@]1(NC(=O)[C@@H]1C[C@@H](Oc2ncc(OC)c3ccc(Cl)cc23)CN1C(=O)[C@@H](Nc1nc(-c2ccc(OC(F)F)cc2)cs1)C(C)(C)C)C(=O)NS(=O)(=O)C1CC1 [Example 8],1 to 50,1 to 20,,
C=C[C@@H]1C[C@]1(NC(=O)[C@@H]1C[C@@H](Oc2ncc(OC)c3ccc(Cl)cc23)CN1C(=O)[C@@H](Nc1nc(-c2cc(OC)ccc2OC)cs1)C(C)(C)C)C(=O)NS(=O)(=O)C1CC1 [Example 30],1 to 50,1 to 20,,
C=C[C@@H]1C[C@]1(NC(=O)[C@@H]1C[C@@H](Oc2ncc(OC)c3ccc(Cl)cc23)CN1C(=O)[C@@H](Nc1nc(-c2cc(Cl)cc(Cl)c2F)cs1)C(C)(C)C)C(=O)NS(=O)(=O)C1CC1 [Example 53],,,20.3,17
"C=C[C@@H]1C[C@]1(NC(=O)[C@@H]1C[C@@H](Oc2ncc(OC)c3ccc(Cl)cc23)CN1C(=O)[C@@H](Nc1nc(-c2ccc(C(F)(F)F)cc2)cs1)C(C)(C)C)C(=O)NS(=O)(=O)C1CC1 [Example 10, (2S,4R)-4-(7-chloro-4-methoxyisoquinolin-1-yloxy)-N-((1R,2S)-1-(cyclopropylsulfonylcarbamoyl)-2-vinylcyclopropyl)-1-((S)-3,3-dimethyl-2-(4-(4-(trifluoromethyl)phenyl)thiazol-2-ylamino)butanoyl)pyrrolidine-2-carboxamide]",1 to 50,1 to 20,,
C=C[C@@H]1C[C@]1(NC(=O)[C@@H]1C[C@@H](Oc2cc(-c3ccccc3)nc3cc(OC)ccc23)CN1C(=O)[C@@H](Nc1nc(-c2cccc(OC)c2)cs1)C(C)(C)C)C(=O)NS(=O)(=O)C1CC1 [Example 3],1 to 50,1 to 20,,
C=C[C@@H]1C[C@]1(NC(=O)[C@@H]1C[C@@H](Oc2ncc(OC)c3ccc(Cl)cc23)CN1C(=O)[C@@H](Nc1nc(-c2c(F)c(F)c(F)c(F)c2F)cs1)C(C)(C)C)C(=O)NS(=O)(=O)C1CC1 [Example 47],1 to 50,1 to 20,,
COc1cnc(O[C@@H]2C[C@@H](C(=O)N[C@]3(C(=O)NS(=O)(=O)C4CC4)C[C@H]3CC(F)F)N(C(=O)[C@@H](Nc3nc(-c4cc(-c5ccc(Cl)cc5)no4)cs3)C(C)(C)C)C2)c2cc(Cl)ccc12 [Example 98],1 to 50,1 to 20,,
C=C[C@@H]1C[C@]1(NC(=O)[C@@H]1C[C@@H](Oc2ncc(OC)c3ccc(Cl)cc23)CN1C(=O)[C@@H](Nc1nc(-c2ccc(C)cc2)cs1)C(C)(C)C)C(=O)NS(=O)(=O)C1CC1 [Example 23],1 to 50,20 to 200,,
C=C[C@@H]1C[C@]1(NC(=O)[C@@H]1C[C@@H](Oc2ncc(OC)c3ccc(Cl)cc23)CN1C(=O)[C@@H](Nc1nc(-c2ccc(F)cc2F)cs1)C(C)(C)C)C(=O)NS(=O)(=O)C1CC1 [Example 13],1 to 50,1 to 20,,
C=C[C@@H]1C[C@]1(NC(=O)[C@@H]1C[C@@H](Oc2cc(-c3ccccc3)nc3cc(OC)ccc23)CN1C(=O)[C@@H](Nc1nc(-c2ccccc2)cs1)C(C)(C)C)C(=O)NS(=O)(=O)C1CC1 [Example 1],1 to 50,1 to 20,,
C=C[C@@H]1C[C@]1(NC(=O)[C@@H]1C[C@@H](Oc2ncc(OC)c3ccc(Cl)cc23)CN1C(=O)[C@@H](Nc1nc(-c2ccsc2)cs1)C(C)(C)C)C(=O)NS(=O)(=O)C1CC1 [Example 93],1 to 50,1 to 20,,
